From patent US8350048B2, “Amide compounds as boosters of antivirals” (Janssen R&D Ireland, priority 2007, dated 2013)
Where two headings read alike, the source gives them in different places.

How the values were obtained:
CYP1A2 [1] = target: T1, CYP1A2 (Homo sapiens, UniProt P05177); assay: CYP450 inhibition CDNA-CYP1A2-CEC; details: 10 μM test compound, substrate CEC 5 μM, 15 min
T1 sequence (P05177 1-516): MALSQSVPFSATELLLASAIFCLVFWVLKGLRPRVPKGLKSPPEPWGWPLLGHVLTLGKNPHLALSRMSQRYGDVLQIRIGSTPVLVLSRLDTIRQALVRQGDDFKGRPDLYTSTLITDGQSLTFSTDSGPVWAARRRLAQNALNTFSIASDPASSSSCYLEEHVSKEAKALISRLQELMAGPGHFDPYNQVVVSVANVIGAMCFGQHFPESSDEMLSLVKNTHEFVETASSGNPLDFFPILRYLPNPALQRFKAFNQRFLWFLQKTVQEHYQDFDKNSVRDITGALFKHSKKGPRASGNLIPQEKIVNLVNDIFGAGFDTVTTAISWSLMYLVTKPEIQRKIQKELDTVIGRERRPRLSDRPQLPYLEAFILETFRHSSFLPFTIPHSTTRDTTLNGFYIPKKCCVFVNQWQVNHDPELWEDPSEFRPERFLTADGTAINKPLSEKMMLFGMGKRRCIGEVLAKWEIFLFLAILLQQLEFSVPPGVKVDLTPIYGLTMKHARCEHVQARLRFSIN

[2] = Metabolic stability of test compounds (HLM15'); format: in vitro ADME, human; details: for recovery at 15 min, 5 μM: pH 7.4, read-out: Metabolic stability (HLM, % recovery after 15')
CYP2D6 [3] = target: T2, CYP2D6 (Homo sapiens, UniProt P10635); assay: CYP450 inhibition CDNA-CYP2D6-AMMC; details: 10 μM test compound, substrate AMMC 3 μM, 45 min
T2 sequence (P10635 whole entry): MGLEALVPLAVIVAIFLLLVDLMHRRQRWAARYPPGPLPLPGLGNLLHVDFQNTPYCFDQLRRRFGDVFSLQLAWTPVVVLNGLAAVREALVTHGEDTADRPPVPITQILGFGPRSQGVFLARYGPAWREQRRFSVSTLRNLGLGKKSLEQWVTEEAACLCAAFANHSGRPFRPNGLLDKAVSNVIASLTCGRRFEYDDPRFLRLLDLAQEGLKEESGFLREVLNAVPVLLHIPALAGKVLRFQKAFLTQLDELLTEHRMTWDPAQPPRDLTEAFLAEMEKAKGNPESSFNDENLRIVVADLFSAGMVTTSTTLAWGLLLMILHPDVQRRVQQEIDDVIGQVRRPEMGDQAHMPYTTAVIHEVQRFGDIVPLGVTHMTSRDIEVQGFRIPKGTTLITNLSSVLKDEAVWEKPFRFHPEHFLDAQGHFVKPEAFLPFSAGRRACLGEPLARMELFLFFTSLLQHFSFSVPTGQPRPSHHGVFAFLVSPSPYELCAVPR

CYP2C9 = CYP2C9 (Homo sapiens, UniProt P11712); assay: in vitro; details: for inhibition at 30 min, 10 μM: human, pH 7.4
CYP2C9, sequence (P11712 whole entry): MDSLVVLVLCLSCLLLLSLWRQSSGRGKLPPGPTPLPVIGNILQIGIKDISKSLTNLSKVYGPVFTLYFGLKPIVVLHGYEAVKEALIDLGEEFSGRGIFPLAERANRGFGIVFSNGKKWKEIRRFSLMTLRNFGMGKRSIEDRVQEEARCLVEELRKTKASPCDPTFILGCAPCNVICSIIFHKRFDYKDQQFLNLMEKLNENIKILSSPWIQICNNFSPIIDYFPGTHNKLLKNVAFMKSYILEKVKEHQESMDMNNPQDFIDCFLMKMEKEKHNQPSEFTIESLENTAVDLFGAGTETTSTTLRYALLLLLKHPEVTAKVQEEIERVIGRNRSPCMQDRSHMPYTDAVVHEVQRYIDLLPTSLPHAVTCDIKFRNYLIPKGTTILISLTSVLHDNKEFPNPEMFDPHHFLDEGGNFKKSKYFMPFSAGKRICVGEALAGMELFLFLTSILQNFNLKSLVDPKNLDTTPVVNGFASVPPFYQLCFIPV
Text: (§1) Assay 4: CYP450 Inhibition

[4] = test system: wild-type HIV-1IIIB strain; assay: Antiviral activity, MT4 LTR-EGFP cellular assay; format: cell-based; design: key to Antiviral activity IIIB (pEC50): pEC50 = -log10(EC50); details: wild-type HIV-1 IIIB, MT4 LTR-EGFP cells, three days after infection; for EC50: Human immunodeficiency virus 1, 72 h, read-out: Antiviral activity IIIB (pEC50) (converted)
CYP2C19 [5] = target: T3, CYP2C19 (Homo sapiens, UniProt P33261); assay: CYP450 inhibition CDNA-CYP2C19-CEC; details: 10 μM test compound, substrate CEC 25 μM, 30 min
T3 sequence (P33261 whole entry): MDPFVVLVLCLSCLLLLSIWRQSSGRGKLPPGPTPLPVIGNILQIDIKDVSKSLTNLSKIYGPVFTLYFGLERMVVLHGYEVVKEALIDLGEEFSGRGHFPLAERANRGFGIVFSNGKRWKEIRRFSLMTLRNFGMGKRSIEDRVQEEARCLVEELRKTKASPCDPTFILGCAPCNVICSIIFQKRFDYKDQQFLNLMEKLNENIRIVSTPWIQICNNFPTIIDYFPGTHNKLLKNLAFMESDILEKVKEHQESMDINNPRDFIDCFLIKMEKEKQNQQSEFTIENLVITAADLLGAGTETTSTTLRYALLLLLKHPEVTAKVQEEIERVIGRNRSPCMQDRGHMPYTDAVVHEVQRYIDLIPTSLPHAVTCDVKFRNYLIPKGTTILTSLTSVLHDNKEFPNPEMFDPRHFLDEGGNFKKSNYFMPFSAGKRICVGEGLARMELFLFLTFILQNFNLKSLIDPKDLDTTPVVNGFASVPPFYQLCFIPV

MT4 CMV-EGFP cells = assay: Toxicity, mock-infected MT4 CMV-EGFP cells; format: cell-based, human
CYP3A4 [6] = target: T4, CYP3A4 (Homo sapiens, UniProt P08684); assay: in vitro; details: for Cyp450 inhibition: CDNA-CYP3A4-DBF (% inhibition): 10 μM test compound, substrate DBF 1 μM, 10 min; for inhibition at 10 min, 10 μM: human, pH 7.4
T4 sequence (P08684 whole entry): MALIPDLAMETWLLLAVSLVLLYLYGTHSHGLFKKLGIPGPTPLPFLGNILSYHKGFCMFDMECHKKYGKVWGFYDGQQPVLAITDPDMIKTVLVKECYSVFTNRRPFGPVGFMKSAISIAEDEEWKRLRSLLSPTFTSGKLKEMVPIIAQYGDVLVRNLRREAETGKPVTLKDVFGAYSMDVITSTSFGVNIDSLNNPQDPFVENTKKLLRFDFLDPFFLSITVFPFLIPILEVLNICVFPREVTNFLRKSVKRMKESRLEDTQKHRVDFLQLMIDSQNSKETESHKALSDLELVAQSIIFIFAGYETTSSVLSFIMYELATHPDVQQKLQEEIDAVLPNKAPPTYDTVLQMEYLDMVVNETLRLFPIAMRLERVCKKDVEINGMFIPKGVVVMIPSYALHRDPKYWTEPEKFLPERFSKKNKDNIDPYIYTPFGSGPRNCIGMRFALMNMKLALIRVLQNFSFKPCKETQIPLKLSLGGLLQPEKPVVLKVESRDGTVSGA
Text: as §1

CYP3A4 [7] = target: T4, CYP3A4; assay: CYP450 inhibition CDNA-CYP3A4-BFC; details: for Cyp450 inhibition: CDNA-CYP3A4-BFC (% inhibition): 10 μM test compound, substrate BFC 150 μM, 30 min; for inhibition at 30 min, 10 μM: human, E. coli expressed CYP3A4, pH 7.4, probe BFC 150 μM
Text: as §1

CYP3A4 [8] = target: T4, CYP3A4; assay: CYP450 inhibition CDNA-CYP3A4-BQ; details: for Cyp450 inhibition: CDNA-CYP3A4-BQ (% inhibition): 10 μM test compound, substrate BQ 60 μM, 30 min; for inhibition at 30 min, 10 μM: human, E. coli expressed CYP3A4, pH 7.4, probe BQ 60 μM
Text: as §1

[9] = In vivo boosting capacity: pharmacokinetics of darunavir in Beagle dogs; details: fed male Beagle dogs, booster 5 mg/kg oral 15 min before darunavir 5 mg/kg oral, average of 3 dogs
Experimental: Oral dosing was done by gavage. At all times, the dogs were given free and continuous access to water. Blood samples were collected from the jugular vein at 0 (=predose), 0.5, 1, 2, 4, 7, and 24 h after dose administration. The samples were centrifuged at 1900×g for 10 min at 5° C. to allow plasma separation. Separated plasma was stored in the freezer within two hours after blood sampling. At all times, blood and plasma samples were placed on melting ice and protected from light. […] Values listed are the average of 3 dogs.

CYP2C19 [10] = target: T3, CYP2C19; assay: in vitro; details: E. coli expressed CYP2C19, pH 7.4, probe CEC 25 μM
CYP1A2 [11] = target: T1, CYP1A2; assay: in vitro; details: E. coli expressed CYP1A2, pH 7.4, probe CEC 5 μM
[12] = Toxicity, mock-infected MT4 CMV-EGFP cells; format: cell-based, human; details: human, mock-infected MT4 CMV-EGFP cells; read-out: Toxicity MT4 (pCC50) (converted)
CYP2D6 [13] = target: T2, CYP2D6; assay: in vitro; details: pH 7.4
[14] = human liver microsomes 1 mg/ml, 5 μM test compound, 15 min
[15] = mock-infected MT4 CMV-EGFP cells

| Structure (SMILES) | Cyp450 inhibition: CDNA-CYP1A2-CEC (% inhibition) (CYP1A2 [1]) | Metabolic stability (HLM, % recovery after 15') [2, 14] | Cyp450 inhibition: CDNA-CYP2D6-AMMC (% inhibition) (CYP2D6 [3]) | Cyp450 inhibition: CDNA-CYP2C9-MFC (% inhibition) (CYP2C9) | Antiviral activity IIIB (pEC50) [4] | Cyp450 inhibition: CDNA-CYP2C19-CEC (% inhibition) (CYP2C19 [5]) | Toxicity MT4 (pCC50) (MT4 CMV-EGFP cells; [15]) | Cyp450 inhibition: CDNA-CYP3A4-DBF (% inhibition) (CYP3A4 [6]) | Cyp450 inhibition: CDNA-CYP3A4-BFC (% inhibition) (CYP3A4 [7]) | Cyp450 inhibition: CDNA-CYP3A4-BQ (% inhibition) (CYP3A4 [8]) | inhibition at 30 min, 10 μM (CYP2C19 [10]) | recovery at 15 min, 5 μM [2, 14] | inhibition at 10 min, 10 μM (CYP3A4 [6]) | inhibition at 30 min, 10 μM (CYP2C9) | EC50 [4] | inhibition at 30 min, 10 μM (CYP3A4 [7]) | inhibition at 15 min, 10 μM (CYP1A2 [11]) | inhibition at 30 min, 10 μM (CYP3A4 [8]) | CC50 at 3 days [12] | inhibition at 45 min, 10 μM (CYP2D6 [13]) | further results |
| --- | --- | --- | --- | --- | --- | --- | --- | --- | --- | --- | --- | --- | --- | --- | --- | --- | --- | --- | --- | --- | --- |
| CCNc1nc2ccc(C(=O)N(C[C@@H](O)[C@H](Cc3ccccc3)NC(=O)OCc3cncs3)CC(C)(C)O)cc2o1 [Compound C44] | 0% | 70% | 38% | 95% | <4.00 | 62% | <4.00 |  |  |  |  |  |  |  |  |  |  |  |  |  |  |
| CCNc1nc2ccc(C(=O)N(CC(C)C)C[C@@H](O)[C@H](Cc3ccccc3)NC(=O)OCc3cncs3)cc2o1 [Compound C27] | 10% | 52% | 70% | 94% | =4.07 | 79% | <4.00 | 94% | 94% | 80% |  |  |  |  |  |  |  |  |  |  |  |
| CC(C)CN(C[C@@H](O)[C@H](Cc1ccccc1)NC(=O)OCc1cncs1)C(=O)c1ccc2ncsc2c1 [Compound C7] |  | 65% |  | 99% | =4.02 |  |  |  |  |  |  |  |  |  |  |  |  |  |  |  | C7h of darunavir [9]: 134 ng/mL; Toxicity MT4 (pCC50) (MT4 CMV-EGFP cells): =4.00 |
| CC(C)CN(C[C@@H](O)[C@H](Cc1ccccc1)NC(=O)OCc1cncs1)C(=O)c1ccc2nc(N(C)C)oc2c1 [Compound C4] | 7% | 67% | 26% | 94% | =4.33 | 82% | =4.32 |  |  |  |  |  |  |  |  |  |  |  |  |  |  |
| CC(C)CN(C[C@@H](O)[C@H](Cc1ccccc1)NC(=O)OCc1cncs1)C(=O)c1ccc2nc(-c3ccncc3)oc2c1 [Compound C48] | 18% |  | 74% | 99% | <4.00 | 94% | <4.00 | 98% | 97% | 85% |  |  |  |  |  |  |  |  |  |  | Metabolic stability (HLM, % recovery after 15') [2]: 91% |
| CC(C)CN(C[C@@H](O)[C@H](Cc1ccccc1)NC(=O)OCc1cncs1)C(=O)c1ccc2nc(NC3CCN(C)CC3)oc2c1 [Compound C25] | 0% | 8% | 67% | 12% | <4.00 | 7% | <4.00 | 76% | 77% | 71% |  |  |  |  |  |  |  |  |  |  |  |
| CCN(C)c1nc2ccc(C(=O)N(CC(C)C)C[C@@H](O)[C@H](Cc3ccccc3)NC(=O)OCc3ccncc3)cc2o1 [Compound C10, Pyridin-4-ylmethyl (2S,3R)-4-(2-(ethyl(methyl)amino)-N-isobutylbenzo[d]-oxazole-6-carboxamido)-3-hydroxy-1-phenylbutan-2-ylcarbamate] |  |  |  |  |  |  |  |  |  |  | 70% | 13% | 95% | 93% | 49 µM | 91% | 18% | 71% | 46.8 µM | 99% |  |
| C#CCN(C[C@@H](O)[C@H](Cc1ccccc1)NC(=O)OCc1cncs1)C(=O)c1ccc2nc(N(C)CC)oc2c1 [Compound C35, Thiazol-5-ylmethyl (2S,3R)-4-(2-(ethyl(methyl)amino)-N-(prop-2-ynyl)benzo[d]oxazole-6-carboxamido)-3-hydroxy-1-phenylbutan-2-ylcarbamate] |  |  |  |  |  |  |  |  |  |  | 101% | 57% | 96% | 96% | 60.3 µM | 96% | 7% | 76% | 75.9 µM | 59% |  |
| Cc1nc2ccc(C(=O)N(CC(C)C)C[C@@H](O)[C@H](Cc3ccccc3)NC(=O)OCc3cncs3)cc2o1 [Compound C40, Thiazol-5-ylmethyl (2S,3R)-3-hydroxy-4-(N-isobutyl-2-methylbenzo[d]-oxazole-6-carboxamido)-1-phenylbutan-2-ylcarbamate] |  |  |  |  |  |  |  |  |  |  | 79% | 60% | 91% | 89% | > 100 µM | 94% | 0% | 74% | > 100 µM | 56% |  |
| CC(C)CN(C[C@@H](O)[C@H](Cc1ccccc1)NC(=O)OCc1cncs1)C(=O)c1ccc2nc(N)sc2c1 [Compound C6, Thiazol-5-ylmethyl (2S,3R)-4-(2-amino-N-isobutylbenzo[d]thiazole-6-carboxamido)-3-hydroxy-1-phenylbutan-2-ylcarbamate] |  |  |  |  |  |  |  |  |  |  | 94% | 70% | 94% | 99% | 75.9 µM | 76% | 36% | 85% | > 93.3 µM | 83% |  |
